# Reference: US20260083865A1, “PROSTATE SPECIFIC MEMBRANE ANTIGEN (PSMA) LIGANDS AND USE THEREOF” (priority 2022, published 2026)
# Like-named read-outs stand apart in the source and are kept apart here. Numbered stars: 1 amine (or outer) side, 2 acyl side, 3 side chain; on linkers, the order of the positions; unused ones are H or OH. Bridge positions count the residues as written; N and C are the ends. Square brackets hold non-standard residues; d marks the D form. Peptide text beside a SMILES is read from it. * marks the point of attachment. DOTA = O=C(O)CN1CCN(CC(=O)O)CCN(CC(=O)*)CCN(CC(=O)O)CC1; Phe(4-Cl) = N[C@@H](Cc1ccc(Cl)cc1)C(=O)O; Phe(4-F) = N[C@@H](Cc1ccc(F)cc1)C(=O)O; Thz(5,5-Me2) = CC1(C)SCN[C@@H]1C(=O)O; Arg(Me) = CNC(=N)NCCC[C@H](N)C(=O)O; Ethylenediamine = C(CN[*:2])N[*:1]; d(αMeD) = C[C@@](N)(CC(=O)O)C(=O)O; X1 = O=C(CC1CCN([*:1])CC1)[*:2]; Cit = NC(=O)NCCC[C@H](N)C(=O)O; Lys(Me) = CNCCCC[C@H](N)C(=O)O; Tle = CC(C)(C)[C@H](N)C(=O)O; 4Amb = NCc1ccc(C(=O)O)cc1; Isovaleryl = CC(C)CC(=O)*; NHCH2CH2NMe2 = CN(C)CCN*; Aib = CC(C)(N)C(=O)O; CO = O=C([*:1])[*:2]; NHBu = CCCCN*
# Tests used:
# [1] = molecular target: T1, PSMA-expressing C4-2 cells (Homo sapiens, UniProt Q04609); assay: FACS binding assay (competition with 50 nM PSM-0183); details: read-out: pIC50 [C4-2] CAT (converted)
# T1 construct: PSMA-expressing C4-2 cells (ATCC, Cat. No. CRL-3314) were cultured in RPMI-1640; host or cells: C4-2 cells
# Outline: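 Competition format: fluorescent tracer PSM-0183 (50 nM) displaced from PSMA on C4-2 cells by a test compound titration over 1 h at 4 °C. Bound tracer was quantified as flow-cytometric AF488 median fluorescence after washing. Four-parameter logistic fits of MFI data gave IC50 and pIC50.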
# [2] = molecular target: T2, Fc-fusion protein of human PSMA (hPSMA-Fc) (Homo sapiens, UniProt Q04609); assay: Surface plasmon resonance assay (Biacore T200, single cycle kinetic); format: binding; details: hPSMA-Fc, 25° C., read-out: pKD CAT (converted)
# T2 construct: purchased Acro Biosystems PSA-H5264
# Outline: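 KD, expressed as pKD, came from 1:1 Langmuir fits of reference- and buffer-blank-subtracted SPR data. The runs were single-cycle kinetics at 25° C in HBST/0.1% DMSO over human PSMA-Fc, captured to ~1000 RU on a peptide-coated CM5 surface and regenerated with 10 mM glycine pH 1.5.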
# [3] = pIC50 category of FACS binding, C4-2 cells
# [4] = pKD category for PSMA SPR activity assay
# [5] = FACS binding, C4-2 cells, competition with 50 nM PSM-0183, category
# [6] = SPR, single cycle kinetic, category
# [7] = FACS binding, PSMA-expressing C4-2 cells, pIC50 category
# T1 sequence (Q04609 whole entry): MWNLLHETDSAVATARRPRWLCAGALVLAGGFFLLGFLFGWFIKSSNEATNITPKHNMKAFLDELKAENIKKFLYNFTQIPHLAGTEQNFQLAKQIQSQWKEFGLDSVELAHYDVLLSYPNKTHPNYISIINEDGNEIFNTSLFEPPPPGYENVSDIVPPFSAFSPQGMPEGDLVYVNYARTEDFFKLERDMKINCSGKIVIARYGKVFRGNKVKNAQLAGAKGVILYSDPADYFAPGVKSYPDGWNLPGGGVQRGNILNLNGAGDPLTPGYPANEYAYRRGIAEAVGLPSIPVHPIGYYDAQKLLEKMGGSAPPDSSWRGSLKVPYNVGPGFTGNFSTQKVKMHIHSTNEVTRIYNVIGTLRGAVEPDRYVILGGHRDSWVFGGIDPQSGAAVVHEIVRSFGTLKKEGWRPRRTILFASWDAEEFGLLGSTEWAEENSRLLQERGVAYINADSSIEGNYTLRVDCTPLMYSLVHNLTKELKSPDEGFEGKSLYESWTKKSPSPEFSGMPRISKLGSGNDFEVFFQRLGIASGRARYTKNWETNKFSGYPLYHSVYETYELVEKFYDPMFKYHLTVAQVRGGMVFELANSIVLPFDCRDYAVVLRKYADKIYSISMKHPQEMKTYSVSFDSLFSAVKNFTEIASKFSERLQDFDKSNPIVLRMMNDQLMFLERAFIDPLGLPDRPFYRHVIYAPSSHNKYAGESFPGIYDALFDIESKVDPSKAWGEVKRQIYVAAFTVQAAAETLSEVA
# T2 sequence (Q04609 44-750 limits assumed): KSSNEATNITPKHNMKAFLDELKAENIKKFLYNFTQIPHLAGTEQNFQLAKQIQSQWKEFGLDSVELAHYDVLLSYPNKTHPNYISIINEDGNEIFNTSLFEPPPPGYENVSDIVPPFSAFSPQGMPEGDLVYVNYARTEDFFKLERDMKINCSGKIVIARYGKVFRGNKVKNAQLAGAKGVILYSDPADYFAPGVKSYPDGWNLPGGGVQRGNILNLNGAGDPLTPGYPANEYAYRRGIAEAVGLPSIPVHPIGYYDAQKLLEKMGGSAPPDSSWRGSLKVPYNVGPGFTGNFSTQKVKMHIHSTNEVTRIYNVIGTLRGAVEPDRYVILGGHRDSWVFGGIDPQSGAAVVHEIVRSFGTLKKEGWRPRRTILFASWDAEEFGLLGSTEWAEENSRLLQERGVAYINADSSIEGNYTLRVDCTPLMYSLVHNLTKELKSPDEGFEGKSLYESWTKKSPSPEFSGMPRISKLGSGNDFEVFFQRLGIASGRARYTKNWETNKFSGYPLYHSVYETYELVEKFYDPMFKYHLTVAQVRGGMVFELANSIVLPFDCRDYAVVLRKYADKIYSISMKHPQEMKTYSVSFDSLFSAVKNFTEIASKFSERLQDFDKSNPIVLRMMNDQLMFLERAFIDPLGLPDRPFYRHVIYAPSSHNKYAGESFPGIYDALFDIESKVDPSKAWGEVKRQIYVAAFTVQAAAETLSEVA
"IC50 [1, 3] [µM]","Kd [2, 4] [µM]","IC50 [1, 5] [µM]","Kd [2, 6] [µM]",SMILES,also measured
< 0.2,< 0.0126,,,"CC(C)(NC(=O)c1ccc(CNC(=O)CN2CCN(CC(=O)O)CCN(CC(=O)O)CCN(CC(=O)O)CC2)cc1)C(=O)N[C@@H](Cc1ccc(Cl)cc1)C(=O)N[C@H]1CSSC[C@@H](C(=O)N[C@H](C(N)=O)C(C)(C)C)NC(=O)[C@H](CC(N)=O)NC(=O)C(C)(C)NC(=O)[C@H](CCCNC(=N)N)NC(=O)[C@H](CCCCN)NC1=O [PSM-0381, DOTA-Pamb-Aib-Pcf-[Cys-Lys-Arg-Aib-Asn-Cys]-Tle-NH2] ({DOTA-4Amb}-[Aib][Phe(4-Cl)]CKR[Aib]NC[Tle]-NH2; disulfide 3-8)",
< 0.2,< 0.0126,,,"CC(=O)N[C@H](C(=O)NC(C)(C)C(=O)N[C@@H](Cc1ccccc1)C(=O)N[C@H]1CSSC[C@@H](C(=O)N[C@H](C(=O)N[C@H](C(=O)N[C@@H](CC(=O)O)C(N)=O)[C@@H](C)O)C(C)(C)C)NC(=O)[C@H](CC(N)=O)NC(=O)[C@H]2N(CSC2(C)C)C(=O)[C@H](CCCNC(=N)N)NC(=O)[C@H](CCCCN)NC1=O)[C@@H](C)O [PSM-0532, Ac-Thr-Aib-Phe-[Cys-Lys-Arg-Dtc-Asn-Cys]-Tle-Thr-Asp-NH2] (Ac-T[Aib]FCKR[Thz(5,5-Me2)]NC[Tle]TD-NH2; disulfide 4-9)",
,,< 0.2,< 0.0126,"CC(=O)NC(C)(C)C(=O)N[C@@H](Cc1ccccc1)C(=O)N[C@H]1CSSC[C@@H](C(=O)N[C@H](C(=O)N[C@H](C(N)=O)[C@@H](C)O)C(C)(C)C)NC(=O)[C@H](CC(N)=O)NC(=O)C(C)(C)NC(=O)[C@H](CCCNC(=N)N)NC(=O)[C@H](CCCCN)NC1=O [PSM-0228, Ac-Aib-Phe-[Cys-Lys-Arg-Aib-Asn-Cys]-Tle-Thr-NH2] (Ac-[Aib]FCKR[Aib]NC[Tle]T-NH2; disulfide 3-8)",
,,,,"CC(=O)N[C@H](C(=O)NC(C)(C)C(=O)N[C@@H](Cc1ccc(Cl)cc1)C(=O)N[C@H]1CSSC[C@@H](C(=O)N[C@H](C(=O)N[C@H](C(N)=O)[C@@H](C)O)C(C)(C)C)NC(=O)[C@H](CO)NC(=O)C(C)(C)NC(=O)[C@H](CCCNC(N)=O)NC(=O)[C@H](CCCCN)NC1=O)[C@@H](C)O [PSM-0293, Ac-Thr-Aib-Pcf-[Cys-Lys-Cit-Aib-Ser-Cys]-Tle-Thr-NH2] (Ac-T[Aib][Phe(4-Cl)]CK[Cit][Aib]SC[Tle]T-NH2; disulfide 4-9)","IC50 [1, 7]: < 0.2 µM; Kd ([2]; PSMA SPR assay, pKD category): < 0.0126 µM"
< 0.2,< 0.0126,,,"CC(C)CC(=O)NC(C)(C)C(=O)N[C@@H](Cc1ccccc1)C(=O)N[C@H]1CSSC[C@@H](C(=O)N[C@H](C(=O)N[C@H](C(N)=O)[C@@H](C)O)C(C)(C)C)NC(=O)[C@H](CC(N)=O)NC(=O)C(C)(C)NC(=O)[C@H](CCCNC(=N)N)NC(=O)[C@H](CCCCN)NC1=O [PSM-0450, Iva-Aib-Phe-[Cys-Lys-Arg-Aib-Asn-Cys]-Tle-Thr-NH2] (Isovaleryl-[Aib]FCKR[Aib]NC[Tle]T-NH2; disulfide 3-8)",
1.26 to 3.16,> 0.501,,,"CCCC[C@H](NC(=O)[C@@H]1CSSC[C@H](NC(=O)[C@H](Cc2ccccc2)NC(=O)[C@@H](C)NC(=O)[C@@H](NC(C)=O)[C@@H](C)O)C(=O)N[C@@H](CCCCN)C(=O)N[C@@H](CCCNC(=N)N)C(=O)N[C@@H](C)C(=O)N[C@@H](CC(N)=O)C(=O)N1)C(=O)N[C@H](C(=O)N[C@@H](CC(=O)O)C(N)=O)[C@@H](C)O [PSM-0537, Ac-Thr-ala-Phe-[Cys-Lys-Arg-Ala-Asn-Cys]-Nlc-Thr-Asp-NH2]",
,,< 0.2,< 0.0126,"CC(=O)N[C@H](C(=O)NC(C)(C)C(=O)N[C@@H](Cc1ccccc1)C(=O)N[C@H]1CSSC[C@@H](C(=O)N[C@H](C(N)=O)C(C)(C)C)NC(=O)[C@H](CC(N)=O)NC(=O)C(C)(C)NC(=O)[C@H](CCCNC(=N)N)NC(=O)[C@H](CCCCN)NC1=O)[C@@H](C)O [PSM-0230, Ac-Thr-Aib-Phe-[Cys-Lys-Arg-Aib-Asn-Cys]-Tle-NH2] (Ac-T[Aib]FCKR[Aib]NC[Tle]-NH2; disulfide 4-9)",
,,< 0.2,< 0.0126,"CNCCCC[C@@H]1NC(=O)[C@@H](NC(=O)[C@H](Cc2ccc(Cl)cc2)NC(=O)C(C)(C)NC(=O)[C@@H](NC(=O)CC2CCN(C(=O)CN3CCN(CC(=O)O)CCN(CC(=O)O)CCN(CC(=O)O)CC3)CC2)[C@@H](C)O)CSSC[C@@H](C(=O)N[C@H](C(N)=O)C(C)(C)C)NC(=O)[C@H](CC(N)=O)NC(=O)C(C)(C)NC(=O)[C@H](CCCNC(=N)N)NC1=O [PSM-0200, DOTA-Cmp-Thr-Aib-Pcf-[Cys-Lys(Me)-Arg-Aib-Asn-Cys]-Tle-NH2] ({DOTA}-[X1]T[Aib][Phe(4-Cl)]C[Lys(Me)]R[Aib]NC[Tle]-NH2; disulfide 5-10)",
> 3.16,> 0.501,,,"CC(=O)N[C@@H](Cc1ccc(Cl)cc1)C(=O)N[C@H]1CSSC[C@@H](C(N)=O)NC(=O)[C@H](CC(N)=O)NC(=O)C(C)(C)NC(=O)[C@H](CCCNC(=N)N)NC(=O)[C@H](CCCCN)NC1=O [PSM-0524, Ac-Pcf-[Cys-Lys-Arg-Aib-Asn-Cys]-NH2] (Ac-[Phe(4-Cl)]CKR[Aib]NC-NH2; disulfide 2-7)",
,,< 0.2,< 0.0126,"CC(=O)N[C@H](C(=O)NC(C)(C)C(=O)N[C@@H](Cc1ccc(Cl)cc1)C(=O)N[C@H]1CSSC[C@@H](C(=O)N[C@H](C(=O)N[C@H](C(N)=O)[C@@H](C)O)C(C)(C)C)NC(=O)[C@H](Cc2c[nH]c3ccccc23)NC(=O)C(C)(C)NC(=O)[C@H](CCCNC(N)=O)NC(=O)[C@H](CCCCN)NC1=O)[C@@H](C)O [PSM-0238, Ac-Thr-Aib-Pcf-[Cys-Lys-Cit-Aib-Trp-Cys]-Tle-Thr-NH2] (Ac-T[Aib][Phe(4-Cl)]CK[Cit][Aib]WC[Tle]T-NH2; disulfide 4-9)",
< 0.2,< 0.0126,,,"CNCCCC[C@@H]1NC(=O)[C@@H](NC(=O)[C@H](Cc2ccc(F)cc2)NC(=O)C(C)(C)NC(=O)[C@@H](NC(=O)CC2CCN(C(=O)CN3CCN(CC(=O)O)CCN(CC(=O)O)CCN(CC(=O)O)CC3)CC2)[C@@H](C)O)CSSC[C@@H](C(=O)N[C@H](C(N)=O)C(C)(C)C)NC(=O)[C@H](CC(N)=O)NC(=O)C(C)(C)NC(=O)[C@H](CCCNC(=N)NC)NC1=O [PSM-0395, DOTA-Cmp-Thr-Aib-Pff-[Cys-Lys(Me)-Arg(Me)-Aib-Asn-Cys]-Tle-NH2] ({DOTA}-[X1]T[Aib][Phe(4-F)]C[Lys(Me)][Arg(Me)][Aib]NC[Tle]-NH2; disulfide 5-10)",
,,< 0.2,< 0.0126,"C[C@@H](O)[C@H](NC(=O)[C@@H](NC(=O)[C@@H]1CSSC[C@H](NC(=O)[C@H](Cc2ccc(Cl)cc2)NC(=O)C(C)(C)NC(=O)[C@@H](NC(=O)CC2CCN(C(=O)CN3CCN(CC(=O)O)CCN(CC(=O)O)CCN(CC(=O)O)CC3)CC2)[C@@H](C)O)C(=O)N[C@@H](CCCCN)C(=O)N[C@@H](CCCNC(=N)N)C(=O)N[C@](C)(CC(=O)O)C(=O)N[C@@H](CC(N)=O)C(=O)N1)C(C)(C)C)C(N)=O [PSM-0227, DOTA-Cmp-Thr-Aib-Pcf-[Cys-Lys-Arg-amd-Asn-Cys]-Tle-Thr-NH2] ({DOTA}-[X1]T[Aib][Phe(4-Cl)]CKR[d(αMeD)]NC[Tle]T-NH2; disulfide 5-10)",
< 0.2,< 0.0126,,,"CC(=O)N1CCC(CC(=O)N[C@H](C(=O)NC(C)(C)C(=O)N[C@@H](Cc2ccc(Cl)cc2)C(=O)N[C@H]2CSSC[C@@H](C(=O)N[C@H](C(=O)NCCNC(=O)CN3CCN(CC(=O)O)CCN(CC(=O)O)CCN(CC(=O)O)CC3)C(C)(C)C)NC(=O)[C@H](CC(N)=O)NC(=O)C(C)(C)NC(=O)[C@H](CCCNC(=N)N)NC(=O)[C@H](CCCCN)NC2=O)[C@@H](C)O)CC1 [PSM-0379, Ac-Cmp-Thr-Aib-Pcf-[Cys-Lys-Arg-Aib-Asn-Cys]-Tle-en-DOTA] (Ac-[X1]T[Aib][Phe(4-Cl)]CKR[Aib]NC[Tle]-{Ethylenediamine-DOTA}; disulfide 5-10)",
,,< 0.2,0.0126 to 0.126,"CCCCNC(=O)N[C@H](C(=O)NC(C)(C)C(=O)N[C@@H](Cc1ccc(Cl)cc1)C(=O)N[C@H]1CSSC[C@@H](C(=O)N[C@H](C(=O)N[C@H](C(=O)N2CCC(CC(=O)N[C@H](CCCCNC(=O)CN3CCN(CC(=O)O)CCN(CC(=O)O)CCN(CC(=O)O)CC3)C(N)=O)CC2)[C@@H](C)O)C(C)(C)C)NC(=O)[C@H](CC(N)=O)NC(=O)C(C)(C)NC(=O)[C@H](CCCNC(N)=O)NC(=O)[C@H](CCCCN)NC1=O)[C@@H](C)O [PSM-0204, nBuCAyl-Thr-Aib-Pcf-[Cys-Lys-Cit-Aib-Asn-Cys]-Tle-Thr-Cmp-lys(DOTA)-NH2] ({NHBu-CO}-T[Aib][Phe(4-Cl)]CK[Cit][Aib]NC[Tle]T[X1][dK](DOTA)-NH2; disulfide 4-9)",
,,,,"C[C@@H](O)[C@H](NC(=O)CC1CCN(C(=O)CN2CCN(CC(=O)O)CCN(CC(=O)O)CCN(CC(=O)O)CC2)CC1)C(=O)NC(C)(C)C(=O)N[C@@H](Cc1ccc(Cl)cc1)C(=O)N[C@H]1CSSC[C@@H](C(=O)N[C@H](C(=O)NCCN(C)C)C(C)(C)C)NC(=O)[C@H](CC(N)=O)NC(=O)C(C)(C)NC(=O)[C@H](CCCNC(=N)N)NC(=O)[C@H](CCCCN)NC1=O [PSM-0306, DOTA-Cmp-Thr-Aib-Pcf-[Cys-Lys-Arg-Aib-Asn-Cys]-Tle-en (Me) 2] ({DOTA}-[X1]T[Aib][Phe(4-Cl)]CKR[Aib]NC[Tle]-NHCH2CH2NMe2; disulfide 5-10)","IC50 [1, 7]: < 0.2 µM; Kd ([2]; PSMA SPR assay, pKD category): 0.0126 to 0.126 µM"
